Twelve compounds from patent US12516056B2, “Compounds for inhibition of janus kinase 1” (MANKIND PHARMA LTD., priority 2019, dated 2026) can be followed below.

In one assay the target is T1, Recombinant JAK1 (Homo sapiens, UniProt P23458).
T1 construct: purchased Carna Biosciences
The assay can be described thus: JAK biochemical assay (LANCE Ultra TR-FRET), JAK1. As to conditions: recombinant JAK1, TR-FRET; read-out: Biochemical Assay (μM) JAK1. The essentials:
(§1)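 % inhibition relative to vehicle was derived from TR-FRET signal proportional to ULight-substrate phosphorylation. Reactions used recombinant kinase in HEPES pH 7.5 buffer containing EGTA, MgCl2, DTT and Tween-20.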

The target in another assay is T2, Recombinant JAK2 (Homo sapiens, UniProt O60674).
T2 construct: purchased Carna Biosciences
T2 sequence (O60674 whole entry): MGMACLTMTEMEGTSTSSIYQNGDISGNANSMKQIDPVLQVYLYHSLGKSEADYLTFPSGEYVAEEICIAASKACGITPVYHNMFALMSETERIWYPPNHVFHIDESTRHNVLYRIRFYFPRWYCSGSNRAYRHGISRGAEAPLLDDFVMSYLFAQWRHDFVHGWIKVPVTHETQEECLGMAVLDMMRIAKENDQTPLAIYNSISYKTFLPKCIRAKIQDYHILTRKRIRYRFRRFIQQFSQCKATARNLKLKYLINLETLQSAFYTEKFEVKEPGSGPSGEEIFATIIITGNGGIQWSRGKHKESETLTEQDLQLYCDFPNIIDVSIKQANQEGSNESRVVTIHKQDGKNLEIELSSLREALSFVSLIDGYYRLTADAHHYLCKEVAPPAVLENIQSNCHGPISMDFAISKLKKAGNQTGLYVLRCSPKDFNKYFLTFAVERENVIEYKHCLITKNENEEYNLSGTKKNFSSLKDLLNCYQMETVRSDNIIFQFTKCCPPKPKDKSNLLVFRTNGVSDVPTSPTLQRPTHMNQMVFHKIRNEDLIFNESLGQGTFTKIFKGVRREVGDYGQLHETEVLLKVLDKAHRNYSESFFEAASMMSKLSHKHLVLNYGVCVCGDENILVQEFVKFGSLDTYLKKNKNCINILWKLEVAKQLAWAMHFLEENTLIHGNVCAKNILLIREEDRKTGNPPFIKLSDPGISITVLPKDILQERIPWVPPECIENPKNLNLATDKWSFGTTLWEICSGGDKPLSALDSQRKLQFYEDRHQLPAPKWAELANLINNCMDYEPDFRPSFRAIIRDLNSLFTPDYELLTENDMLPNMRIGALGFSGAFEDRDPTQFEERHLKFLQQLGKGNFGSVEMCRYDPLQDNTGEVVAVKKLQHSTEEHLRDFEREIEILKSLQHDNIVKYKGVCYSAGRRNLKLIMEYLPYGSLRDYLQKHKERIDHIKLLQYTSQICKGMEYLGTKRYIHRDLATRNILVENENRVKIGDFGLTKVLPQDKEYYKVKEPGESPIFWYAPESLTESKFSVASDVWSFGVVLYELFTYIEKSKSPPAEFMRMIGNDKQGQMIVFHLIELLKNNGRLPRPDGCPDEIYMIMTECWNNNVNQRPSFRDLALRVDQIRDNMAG
The assay is described as follows: JAK biochemical assay (LANCE Ultra TR-FRET), JAK2. The note with it: recombinant JAK2, TR-FRET; read-out: Biochemical Assay (μM) JAK2. In a few lines: as §1
For orientation: Time-resolved FRET reads energy transfer from a long-lived donor to a nearby acceptor.

A further assay has as its target T3, Recombinant JAK3 (Homo sapiens, UniProt P52333).
T3 construct: purchased Carna Biosciences
T3 sequence (P52333 1-1124): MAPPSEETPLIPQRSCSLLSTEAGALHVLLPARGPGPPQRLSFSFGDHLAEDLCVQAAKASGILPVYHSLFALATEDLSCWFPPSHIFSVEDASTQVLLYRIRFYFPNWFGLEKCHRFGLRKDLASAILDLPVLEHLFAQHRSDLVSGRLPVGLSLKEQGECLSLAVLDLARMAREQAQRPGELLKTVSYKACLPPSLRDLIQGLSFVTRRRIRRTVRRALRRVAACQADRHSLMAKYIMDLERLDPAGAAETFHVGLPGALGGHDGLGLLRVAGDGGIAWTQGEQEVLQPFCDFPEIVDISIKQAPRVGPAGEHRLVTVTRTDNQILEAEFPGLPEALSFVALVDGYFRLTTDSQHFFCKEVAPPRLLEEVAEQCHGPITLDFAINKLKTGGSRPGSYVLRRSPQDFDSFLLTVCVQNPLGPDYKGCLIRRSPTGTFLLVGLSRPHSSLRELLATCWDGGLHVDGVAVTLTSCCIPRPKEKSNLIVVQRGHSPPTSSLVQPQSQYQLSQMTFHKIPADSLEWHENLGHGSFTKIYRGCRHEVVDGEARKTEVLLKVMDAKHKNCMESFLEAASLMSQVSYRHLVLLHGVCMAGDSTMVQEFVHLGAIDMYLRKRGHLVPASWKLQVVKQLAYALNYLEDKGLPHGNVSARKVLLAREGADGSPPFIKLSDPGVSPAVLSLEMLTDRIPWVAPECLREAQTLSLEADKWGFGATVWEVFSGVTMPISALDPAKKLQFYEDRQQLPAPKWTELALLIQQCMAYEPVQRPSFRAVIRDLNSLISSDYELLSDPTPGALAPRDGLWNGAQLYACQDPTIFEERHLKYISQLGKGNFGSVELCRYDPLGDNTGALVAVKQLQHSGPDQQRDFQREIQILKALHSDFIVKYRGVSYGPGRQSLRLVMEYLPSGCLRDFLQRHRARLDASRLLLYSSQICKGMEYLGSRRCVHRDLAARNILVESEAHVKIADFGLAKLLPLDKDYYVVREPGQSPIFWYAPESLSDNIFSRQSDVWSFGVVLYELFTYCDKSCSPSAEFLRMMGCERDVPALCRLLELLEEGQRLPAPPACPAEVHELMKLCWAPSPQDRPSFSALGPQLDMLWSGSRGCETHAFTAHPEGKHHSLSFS
The assay is described as follows: JAK biochemical assay (LANCE Ultra TR-FRET), JAK3. As to conditions: recombinant JAK3, TR-FRET; read-out: Biochemical Assay (μM) JAK3. In a few lines: as §1

Another assay has as its target T4, Recombinant TYK2 (Homo sapiens, UniProt P29597).
T4 construct: purchased Carna Biosciences
The assay is described as follows: JAK biochemical assay (LANCE Ultra TR-FRET), TYK2. As to conditions: recombinant TYK2, TR-FRET; read-out: Biochemical Assay (μM) TYK2. In a few lines: as §1

Assay [1] relates to STAT3 phosphorylation by IL-6 in TF-1 cells. The assay can be described thus: JAK cellular assay: STAT3 phosphorylation by IL-6 in TF-1 cells (HTRF). The class given is cell-based. As to conditions: Homo sapiens, TF-1, TF-1 cells, IL-6 30 ng/ml, pSTAT3 HTRF; read-out: Cell Based Assay (μM) TF-1/IL-6/pSTAT3. In a few lines:
(§2)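 Phospho-STAT3 (IL-6, 30 ng/ml) and phospho-STAT5 (GMCSF, 5 ng/ml) read by HTRF in lysates after 20 min cytokine exposure, minus unstimulated-cell background. Cells were serum-starved overnight, plated at 120,000/well, given compound 30 min at 37 °C beforehand; DMSO 0.2% final.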

In assay [2] the test system is STAT5 phosphorylation by IL-2 in HT-2 cells. The assay is described as follows: STAT5 phosphorylation by IL-2 in HT-2 cells (HTRF). The class given is cell-based. As to conditions: IL-2 50 U/ml, pSTAT5 HTRF, read-out: Cell Based Assay (μM) HT-2/IL-2/pSTAT5. As to the method:
HT-2 cells were starved […] in RPMI phenol red with 10% fetal bovine serum for 4 hours in CO2 incubator maintained at 37° c. Compounds were diluted in DMSO and added to 96 well plate containing a final density of 1,20,000 cells per well. Cells and compounds are incubated for 30 minutes in CO2 incubator maintained at 37° C. and final DMSO concentration in cell based assay was 0.2%. Human recombinant cytokine, IL-2 (50 U/ml) was added to the plate containing cells and compound and incubated for 20 minutes with gentle tapping/shaking at every 5 minutes once. Compound mediated effects on STAT5 phosphorylation was measured in the lysates prepared by using CISBIO pSTAT5 detection kit by HTRF method. Background signal obtained from cells which were not activated with cytokines, was subtracted from vehicle controls and compound treated wells.

For assay [3], the system named is STAT5 phosphorylation by GMCSF in TF-1 cells. The assay is described as follows: JAK cellular assay: STAT5 phosphorylation by GMCSF in TF-1 cells (HTRF). As to conditions: Homo sapiens; TF-1 cells, GMCSF 5 ng/ml, pSTAT5 HTRF; read-out: Cell Based Assay (μM) TF-1/GMCSF/pSTAT5. The class given is cell-based. In a few lines:
as §2

Where two headings read alike, the source gives them in different places.

T4 sequence (P29597 whole entry): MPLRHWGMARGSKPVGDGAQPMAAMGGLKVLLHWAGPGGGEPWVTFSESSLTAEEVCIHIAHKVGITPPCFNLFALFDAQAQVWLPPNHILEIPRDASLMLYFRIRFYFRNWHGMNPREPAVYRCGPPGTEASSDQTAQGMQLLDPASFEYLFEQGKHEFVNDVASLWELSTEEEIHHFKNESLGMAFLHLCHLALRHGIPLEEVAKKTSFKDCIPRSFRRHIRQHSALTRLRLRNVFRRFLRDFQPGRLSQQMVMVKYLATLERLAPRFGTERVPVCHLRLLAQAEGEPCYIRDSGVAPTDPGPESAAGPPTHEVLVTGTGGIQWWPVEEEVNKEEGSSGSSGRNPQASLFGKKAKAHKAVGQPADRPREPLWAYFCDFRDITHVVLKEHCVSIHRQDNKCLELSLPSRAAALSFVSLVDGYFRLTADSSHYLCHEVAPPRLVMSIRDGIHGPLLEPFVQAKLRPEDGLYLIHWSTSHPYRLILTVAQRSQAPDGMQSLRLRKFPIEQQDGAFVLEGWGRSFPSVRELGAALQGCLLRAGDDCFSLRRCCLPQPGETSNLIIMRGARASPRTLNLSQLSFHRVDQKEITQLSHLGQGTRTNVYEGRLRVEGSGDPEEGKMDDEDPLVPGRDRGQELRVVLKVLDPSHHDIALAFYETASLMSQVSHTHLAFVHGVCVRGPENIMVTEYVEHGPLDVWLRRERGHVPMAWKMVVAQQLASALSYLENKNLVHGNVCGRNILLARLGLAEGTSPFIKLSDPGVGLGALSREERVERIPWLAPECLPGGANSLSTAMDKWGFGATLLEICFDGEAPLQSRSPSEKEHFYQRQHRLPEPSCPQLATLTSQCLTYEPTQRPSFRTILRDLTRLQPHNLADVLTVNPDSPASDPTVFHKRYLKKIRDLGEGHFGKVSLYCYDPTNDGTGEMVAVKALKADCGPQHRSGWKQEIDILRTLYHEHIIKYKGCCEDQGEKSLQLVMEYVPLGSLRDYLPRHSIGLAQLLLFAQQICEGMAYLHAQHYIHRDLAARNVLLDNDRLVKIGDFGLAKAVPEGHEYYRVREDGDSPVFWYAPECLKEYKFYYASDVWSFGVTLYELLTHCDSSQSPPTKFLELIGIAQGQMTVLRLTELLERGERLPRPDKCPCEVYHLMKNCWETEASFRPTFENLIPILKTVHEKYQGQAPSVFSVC
T1 sequence (P23458 whole entry): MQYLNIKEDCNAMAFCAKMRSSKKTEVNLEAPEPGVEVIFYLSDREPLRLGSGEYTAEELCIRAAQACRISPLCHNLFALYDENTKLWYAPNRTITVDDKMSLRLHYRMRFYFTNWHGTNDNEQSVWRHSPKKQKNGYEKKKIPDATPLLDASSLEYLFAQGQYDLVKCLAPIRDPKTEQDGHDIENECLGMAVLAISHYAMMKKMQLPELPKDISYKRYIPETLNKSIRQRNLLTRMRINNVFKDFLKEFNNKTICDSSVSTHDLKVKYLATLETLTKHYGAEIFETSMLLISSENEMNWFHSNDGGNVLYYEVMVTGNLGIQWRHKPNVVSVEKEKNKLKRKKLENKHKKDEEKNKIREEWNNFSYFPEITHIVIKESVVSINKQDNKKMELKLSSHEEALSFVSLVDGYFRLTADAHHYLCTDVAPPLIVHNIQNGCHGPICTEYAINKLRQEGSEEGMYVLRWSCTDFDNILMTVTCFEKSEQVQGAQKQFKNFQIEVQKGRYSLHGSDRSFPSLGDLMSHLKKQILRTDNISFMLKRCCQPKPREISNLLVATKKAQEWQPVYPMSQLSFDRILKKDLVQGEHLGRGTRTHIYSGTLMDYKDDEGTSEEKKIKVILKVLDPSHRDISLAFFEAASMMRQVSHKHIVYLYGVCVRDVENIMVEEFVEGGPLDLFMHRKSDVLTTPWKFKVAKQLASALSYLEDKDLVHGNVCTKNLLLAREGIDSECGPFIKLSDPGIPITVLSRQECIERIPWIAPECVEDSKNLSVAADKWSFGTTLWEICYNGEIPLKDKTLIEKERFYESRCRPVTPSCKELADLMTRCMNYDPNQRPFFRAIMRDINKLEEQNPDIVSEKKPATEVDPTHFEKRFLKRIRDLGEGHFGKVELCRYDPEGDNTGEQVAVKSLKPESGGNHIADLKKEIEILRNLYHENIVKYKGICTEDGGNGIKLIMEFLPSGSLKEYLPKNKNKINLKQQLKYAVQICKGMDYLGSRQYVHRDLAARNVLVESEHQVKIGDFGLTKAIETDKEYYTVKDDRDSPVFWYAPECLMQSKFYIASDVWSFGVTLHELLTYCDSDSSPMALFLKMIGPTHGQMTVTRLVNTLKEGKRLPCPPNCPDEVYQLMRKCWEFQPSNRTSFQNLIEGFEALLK

In the case of `CC(C)N1CCC([C@](O)(c2ccc(-n3cc(-c4ccnc5[nH]cnc45)cn3)cc2)C(F)(F)F)C1` (stereo partly drawn) [Example 1251, (S)-1-(4-(4-(3H-imidazo[4,5-b]pyridin-7-yl)-1H-pyrazol-1-yl)phenyl)-2,2,2-trifluoro-1-(1-isopropylpyrrolidin-3-yl)ethanol], the IC50 was less than 0.1 µM at Recombinant JAK1; less than 0.1 µM on Recombinant JAK2; less than 0.1 µM at Recombinant JAK3; more than 0.5 µM at Recombinant TYK2; 1 µM in assay [1]; more than 2 µM in assay [2] (HT2, HT-2 cells).

In the case of `CNCCC(c1ccc(-n2cc(-c3ccnc4[nH]cnc34)cn2)nc1)C(F)(F)F` (stereo not shown) [Example 1152, 3-(6-(4-(3H-imidazo[4,5-b]pyridin-7-yl)-1H-pyrazol-1-yl)pyridin-3-yl)-4,4,4-trifluoro-N-methylbutan-1-amine], the IC50 was less than 0.1 µM at Recombinant JAK1; less than 0.1 µM at Recombinant JAK2; less than 0.1 µM at Recombinant JAK3; more than 0.5 µM at Recombinant TYK2; more than 0.1 µM in assay [1]; more than 0.1 µM in assay [2] (HT-2 cells).

In the case of `CC(C)C(=O)NCCC(c1ccc(-n2cc(-c3ccnc4[nH]cnc34)cn2)nc1)C(F)(F)F` (stereo not shown) [Example 1247, N-(3-(6-(4-(3H-imidazo[4,5-b]pyridin-7-yl)-1H-pyrazol-1-yl)pyridin-3-yl)-4,4,4-trifluorobutyl)isobutyramide], the IC50 on Recombinant JAK2 is 0.06 µM; at Recombinant JAK3, 0.023 µM; at Recombinant TYK2, 0.19 µM; in assay [1], more than 1 µM; in assay [2] (HT2, HT-2 cells), more than 1 µM.

On to `O=S(=O)(CC[C@@H](c1ccc(-n2cc(-c3ccnc4[nH]cnc34)cn2)nc1)C(F)(F)F)C1CC1` [Example 1216, 7-(1-(5-((S)-4-(cyclopropylsulfonyl)-1,1,1-trifluorobutan-2-yl)pyridin-2-yl)-1H-pyrazol-4-yl)-3H-imidazo[4,5-b]pyridine], for which the IC50 on Recombinant JAK1 is less than 0.1 µM; at Recombinant JAK2, less than 0.1 µM; on Recombinant JAK3, less than 0.1 µM; at Recombinant TYK2, more than 0.5 µM; in assay [1], 0.28 µM; in assay [2] (HT2, HT-2 cells) it was 0.51 µM.

With `N#CCC(=O)NCCC(c1ccc(-n2cc(-c3ccnc4[nH]cnc34)cn2)nc1)C(F)(F)F` (stereo not shown) [Example 1248, N-(3-(6-(4-(3H-imidazo[4,5-b]pyridin-7-yl)-1H-pyrazol-1-yl)pyridin-3-yl)-4,4,4-trifluorobutyl)-2-cyanoacetamide], the IC50 at Recombinant JAK1 was less than 0.1 µM; on Recombinant JAK2, less than 0.1 µM; on Recombinant JAK3, less than 0.1 µM; at Recombinant TYK2, more than 0.5 µM; in assay [1], more than 0.75 µM; in assay [2] (HT2, HT-2 cells), more than 0.8 µM.

Turning to `CC(C)NCC[C@@H](c1ccc(-n2cc(-c3ccnc4[nH]cnc34)cn2)nc1)C(F)(F)F` [Example 1207, (S)-3-(6-(4-(3H-imidazo[4,5-b]pyridin-7-yl)-1H-pyrazol-1-yl)pyridin-3-yl)-4,4,4-trifluoro-N-isopropylbutan-1-amine], the IC50 was 0.005 µM at Recombinant JAK1; 0.01 µM at Recombinant JAK2; 0.005 µM on Recombinant JAK3; more than 0.5 µM on Recombinant TYK2; 0.43 µM in assay [1]; 1.08 µM in assay [2] (HT2, HT-2 cells).

Regarding `N#CCCC(c1ccc(-n2cc(-c3ccnc4[nH]cnc34)cn2)nc1)C(F)(F)F` (stereo not shown) [Example 1156, 4-(6-(4-(3H-imidazo[4,5-b]pyridin-7-yl)-1H-pyrazol-1-yl)pyridin-3-yl)-5,5,5-trifluoropentanenitrile], the IC50 on Recombinant JAK1 was more than 0.1 µM; on Recombinant JAK2, more than 0.5 µM; at Recombinant JAK3, more than 0.5 µM; at Recombinant TYK2, more than 1 µM; in assay [1] it was more than 0.5 µM; in assay [2] (HT2, HT-2 cells) it was more than 1 µM.

For `N#CC(C(=O)NCC(F)(F)F)c1ccc(-n2cc(-c3ccnc4[nH]cnc34)cn2)nc1` (stereo not shown) [Example 1168, 2-(6-(4-(3H-imidazo[4,5-b]pyridin-7-yl)-1H-pyrazol-1-yl)pyridin-3-yl)-2-cyano-N-(2,2,2-trifluoroethyl)acetamide], the IC50 was more than 0.1 µM at Recombinant JAK1; more than 0.5 µM on Recombinant JAK2; more than 0.1 µM on Recombinant JAK3; more than 1 µM on Recombinant TYK2; more than 1 µM in assay [1]; more than 1 µM in assay [2] (HT2, HT-2 cells).

With `CC(=O)N1CC(C(O)(c2ccc(-n3cc(-c4ccnc5[nH]cnc45)cn3)nc2)C(F)(F)F)C1` (stereo not shown) [Example 1236, 1-(3-(1-(6-(4-(3H-imidazo[4,5-b]pyridin-7-yl)-1H-pyrazol-1-yl)pyridin-3-yl)-2,2,2-trifluoro-1-hydroxyethyl)azetidin-1-yl)ethanone], the IC50 on Recombinant JAK2 is more than 0.03 µM; at Recombinant JAK3, more than 0.03 µM; at Recombinant TYK2, more than 0.1 µM; in assay [1], more than 1 µM; in assay [2] (HT2, HT-2 cells) it was more than 0.75 µM.

As for `FC(F)(F)C(Cl)c1ccc(-n2cc(-c3ccnc4[nH]cnc34)cn2)nc1` (stereo not shown) [Example 1120, 7-(1-(5-(1-chloro-2,2,2-trifluoroethyl)pyridin-2-yl)-1H-pyrazol-4-yl)-3H-imidazo[4,5-b]pyridine], the IC50 on Recombinant JAK1 was more than 0.05 µM; at Recombinant JAK2, more than 0.1 µM; at Recombinant JAK3, more than 0.1 µM; on Recombinant TYK2 it was more than 1 µM; in assay [1], more than 1 µM; in assay [3], more than 10 µM.

On to `CCN1CCC(C(O)(c2ccc(-n3cc(-c4ccnc5[nH]cnc45)cn3)nc2)C(F)(F)F)CC1` (stereo not shown) [Example 1221, 1-(6-(4-(3H-imidazo[4,5-b]pyridin-7-yl)-1H-pyrazol-1-yl)pyridin-3-yl)-1-(1-ethylpiperidin-4-yl)-2,2,2-trifluoroethanol], for which the IC50 on Recombinant JAK1 is less than 0.1 µM; on Recombinant JAK2, less than 0.1 µM; at Recombinant JAK3, less than 0.1 µM; at Recombinant TYK2 it was more than 0.1 µM; in assay [1], more than 0.75 µM; in assay [3], more than 1 µM.

Turning to `N#CC(c1ccc(-n2cc(-c3ccnc4[nH]cnc34)cn2)nc1)N1CC(F)(F)C1` (stereo not shown) [Example 1111, 2-(6-(4-(3H-imidazo[4,5-b]pyridin-7-yl)-1H-pyrazol-1-yl)pyridin-3-yl)-2-(3,3-difluoroazetidin-1-yl)acetonitrile], the IC50 is less than 0.5 µM at Recombinant JAK1; more than 0.5 µM at Recombinant JAK2; less than 0.5 µM on Recombinant JAK3; more than 10 µM on Recombinant TYK2; more than 10 µM in assay [1]; more than 10 µM in assay [3].
